Source: publication PMC12525867, “Aromaticity Tuning in Biaryl Monophosphines and Their Derivatives” (Molecules, 2025)
Converted amounts (≈) assume the structure as drawn.

Columns and labels:
[1] = Cytotoxicity, microculture tetrazolium (MTT) test, VERO; type: cell-based; conditions: African green monkey, ATCC CCL-81; VERO (normal kidney cells), 24 h incubation, MTT; ± SD
Protocol: (§1) The cytotoxicity of biaryl monophosphines was tested in vitro in normal (VERO) and cancer-derived (H1HeLa) cells after 24 h of incubation using a microculture tetrazolium test. Table 2 presents the CC50 (concentrations decreasing the cellular viability by 50%) values calculated from dose–response cytotoxicity curves (Figure 4).
(§2) Cytotoxicity was evaluated using a microculture tetrazolium test as previously described, and details can be found in the Supplementary Materials. The cell lines used in the presented study were acquired from the American Type Culture Collection (ATCC); the one used for cytotoxicity testing included non-cancerous VERO (kidney; ATCC CCL-81) cells and cancer-originating H1HeLa (cervical adenocarcinoma; ATCC CRL-1958) cells. VERO cells were cultured in Dulbecco’s Modified Eagle’s Medium (DMEM; Corning, Tewksbury, MA, USA), while Eagle’s Minimum Essential Medium (MEM; Corning) was used for H1HeLa. Antibiotics (penicillin–streptomycin solution, Corning) and fetal bovine serum (FBS, Corning) were added to cell media. Cells were incubated in a 5% CO2 atmosphere at 37 °C (CO2 incubator, Panasonic Healthcare Co., Tokyo, Japan). Briefly, the monolayers of VERO or H1HeLa cells in 96-well plates (Falcon, Corning) were treated with serial dilutions of selected compounds for 24 h. After this, the medium was removed, the plates were washed with phosphate buffered saline (PBS; Corning), a 10% solution of (3-(4,5-dimethylthiazol-2-yl)-2,5-diphenyltetrazolium bromide (MTT; Sigma-Aldrich, St. Louis, MO, USA) (5 mg/mL) in FBS-free cell media was added, and the incubation continued for the next 4 h. Subsequently, the precipitated formazan crystals were dissolved, and after overnight incubation at 37 °C, the Synergy H1 Multi-Mode Microplate Reader (BioTek Instruments, Inc., Winooski, VT, USA) with Gen5 software (ver. 3.09.07; BioTek Instruments, Inc.) was used for absorbance acquisition (540 and 620 nm). Data was exported to GraphPad Prism (ver. 10) to calculate the CC50 values (50% cytotoxic concentration) from dose–response curves.
(§3) Aromaticity Tuning in Biaryl Monophosphines and Their Derivatives […]
(§4) Cell line maintenance and in vitro experiments
(§5) The cytotoxicity of selected biaryl monophosphines was evaluated in vitro towards normal VERO (ATCC, CCL-81) cells and cancer-derived cell line H1HeLa (cervical adenocarcinoma; ATCC (American Type Culture Collection) CRL-1958) using 3-(4,5-dimethylthiazol-2-yl)-2,5-diphenylte-trazolium bromide (MTT) based protocol.
(§6) Media used for in vitro culturing included Dulbecco's Modified Eagle's Medium (DMEM, Corning, Tewksbury, MA, USA) used for VERO cells and Modified Eagle Medium (MEM, Corning) used for H1HeLa. Cell media used in the experiments were supplemented with antibiotics (Penicil-lin-Streptomycin Solution, Corning) and fetal bovine serum (FBS, Corning) – 10% (cell passaging) and 2% (cell maintenance and experiments). Phosphate-buffered saline (PBS) and trypsin were bought from Corning, whereas MTT (3-(4,5-dimethylthiazol-2-yl)-2,5-diphenyltetrazolium bromide) from Sigma (Sigma-Aldrich, St. Louis, MO, USA). SDS was purchased from PanReac Applichem (Darmstadt, Germany). Incubation was carried out in a 5% CO2 atmosphere at 37°C (CO2 incubator, Panasonic Healthcare Co., Tokyo, Japan).
(§7) Concentrations of cells for passaging were as follows: VERO – 1.5*10^5 cells/mL, H1HeLa – 2*10^5 cells/mL. Routine observations of cell cultures and experiments were carried out using an in-verted microscope (CKX41, Olympus Corporation, Tokyo, Japan) equipped with a ca mera (Moti-cam 3+, Motic, Hong Kong), and the results were recorded (Motic Images Plus 2.0, Motic).
(§8) Stock solutions of biaryl monophosphines were prepared by dissolving the samples in cell culture grade DMSO (PanReac Applichem).
(§9) Evaluation of cytotoxicity
(§10) Cytotoxicity was tested using an MTT-based protocol. The cells were passaged into 96-well plates (Falcon, TC-treated, Corning) and, after overnight incubation, treated with serial dilutions of […]

VERO cells = test: as above; type: cell-based; conditions: VERO, 24 h, microscopy
Protocol: as §1, §2, §3, §4, §5, §6, §7, §8, §9, §10

[2] = tested on: S. epidermidis ATCC 12228; test: Antibacterial screening, broth microdilution (MIC/MBC); type: cell-based, Staphylococcus epidermidis; conditions: for MIC / MBC: Staphylococcus epidermidis, ATCC12228; for MIC: S. epidermidis ATCC 12228, MHB, 24 h, 35 °C, read-out: MIC; for MBC: read-out: MBC
Protocol: (§11) The antimicrobial activities of a series of compounds 1–5 were tested through the utilization of seven reference species, encompassing both Gram-positive (Staphylococcus aureus ATCC 29213, Staphylococcus epidermidis ATCC 12228, Micrococcus luteus ATCC 10240) and Gram-negative (Escherichia coli ATCC 25922, Klebsiella pneumoniae ATCC 13883, Proteus mirabilis ATCC 12453, Acinetobacter baumannii ATCC 19606) bacteria as model microorganisms. For this purpose, microbial suspensions were prepared in sterile saline (0.85% NaCl) with an optical density of 0.5 McFarland standard, yielding a concentration of 150 × 10^6 CFU/mL (CFU, colony-forming units). All of the stock solutions of the tested compounds were dissolved in DMSO. Amoxicillin (Glentham Life Sciences Ltd., Corsham, UK) was used as a positive control.
(§12) The MIC values of the tested compounds were determined by serial twofold dilutions of 1–5 in Mueller Hinton Broth (MHB, Biomaxima, Lublin, Poland). The range of final 1–5 concentrations used was from 0.49 up to 1000 μg/mL, and for amoxicillin from 0.12 up to 250 μg/mL in the 96-well microtiter plates (Medlab, Raszyn, Poland), starting with 98 μL MHB and 2 μL bacterial inoculum added to each well. Positive controls consisted of 100 μL MHB in each well with the tested compounds at the same concentration range. The negative controls consisted of 100 μL of MHB only. Each set of tests and controls was established with three replicates. The microtiter plates were then subjected to an incubation period of 24 h at a temperature of 35 ± 2 °C. After incubation, the optical density of the microbial growth was measured at a wavelength of 600 nm using a microplate reader, the Biotek Elx800 (BioTek Instruments, Inc., Winooski, VT, USA). The MIC value was defined as the lowest concentration of the tested compound at which there was no visible growth of the tested microorganisms. The determination of the MIC values was achieved by employing the broth microdilution method, in accordance with the recommendations of the European Committee on Antimicrobial Susceptibility Testing (EUCAST). […] Then, the MHA plates were incubated overnight at 35 ± 2 °C. […] The MIC and MBC values were reported in μg/mL, according to the EUCAST reference.

M. luteus ATCC 10240 = test: as above; type: cell-based, Micrococcus luteus; conditions: Micrococcus luteus, ATCC10240; M. luteus ATCC 10240; read-out: MBC
Protocol: as §11, §12

K. pneumoniae ATCC 13883 = test: as above; type: cell-based, Klebsiella pneumoniae; conditions: Klebsiella pneumoniae, ATCC13883; K. pneumoniae ATCC 13883, MHB, 24 h, 35 °C; read-out: MIC
Protocol: as §11, §12

MIC [2] [µg/mL] | MIC (K. pneumoniae ATCC 13883) [µg/mL] | Structure (SMILES) | CC50 at 24 h [1] [µg/mL] | influence on morphology of the cellular monolayer (VERO cells; 12.5 µg/mL) | type of activity (bactericidal or bacteriostatic) ([2]; S. epidermidis ATCC 12228) | MBC ([2]; S. epidermidis ATCC 12228) [µg/mL] | MBC (M. luteus ATCC 10240) [µg/mL] | influence on morphology of the cellular monolayer (VERO cells; 1.6 µg/mL) | influence on morphology of the cellular monolayer (VERO cells; 3.1 µg/mL) | influence on morphology of the cellular monolayer (VERO cells; 6.3 µg/mL)
15.6 to 31.2 (≈ 27.6 to 55.1 µM) | > 1000 | COc1cc(OC)c(-c2c(P(=O)(C3CCCCC3)C3CCCCC3)c(OC)c3ccccc3c2OC)c(OC)c1 [Compound 1, Dicyclohexyl[1,4-dimethoxy-3-(2,4,6-trimethoxyphenyl)naphthalen-2-yl]phosphane oxide] | 9.82 ± 0.59 | some fibroblast-shaped VERO cells were noticeable | bactericidal | 250 (≈ 441 µM) | 125 (≈ 221 µM) | – | – | –
3.91 to 7.89 (≈ 7.72 to 15.6 µM) | > 1000 | COc1ccccc1-c1c(P(=O)(C2CCCCC2)C2CCCCC2)c(OC)c2ccccc2c1OC [Compound 2, Dicyclohexyl[1,4-dimethoxy-3-(2-methoxyphenyl)naphthalen-2-yl]phosphane oxide] | 7.78 ± 0.44 | some fibroblast-shaped VERO cells were noticeable | – | > 1000 | > 1000 | – | – | –
31.2 (≈ 56.5 µM) | 500 (≈ 905 µM) | COc1cc(OC)c(-c2c(P(=O)(C3CCCCC3)C3CCCCC3)c(O)c3ccccc3c2OC)c(OC)c1 [Compound 3, 2-(Dicyclohexylphosphoryl)-4-methoxy-3-(2,4,6-trimethoxyphenyl)naphthalen-1-ol] | 3.11 ± 0.14 | destroyed the cellular monolayer | – | > 1000 | > 1000 | the cellular monolayer resembled the control cells | only a fraction of shrunken cells visible | most of the cells showed cytotoxic damage
